Where a name gives a salt, the structure may show the parent alone. Read-outs that look alike come from different tables or passages of the source. Bounds are passed on as bounds.

Assay [1] deals with PI3Kδ (p110δ/p85α) Recombinant Human Protein (Homo sapiens (Human), UniProt O00329). Briefly: PI3Kδ Scintillation Proximity Assay. It counts as biochemical. The method, boiled down: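 Assay conditions: 2 μM ATP (radiolabelled), 20 μM PIP2, 3.4 nM PI3Kδ, 20 mM MOPS pH 6.7 with 10 mM MgCl2, 5 mM DTT, 0.03% CHAPS, 2 h at room temperature. Signal from bead-captured 33P product; IC50 versus solvent control.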
Chain of PI3Kδ (p110δ/p85α) Recombinant Human Protein (O00329 whole entry): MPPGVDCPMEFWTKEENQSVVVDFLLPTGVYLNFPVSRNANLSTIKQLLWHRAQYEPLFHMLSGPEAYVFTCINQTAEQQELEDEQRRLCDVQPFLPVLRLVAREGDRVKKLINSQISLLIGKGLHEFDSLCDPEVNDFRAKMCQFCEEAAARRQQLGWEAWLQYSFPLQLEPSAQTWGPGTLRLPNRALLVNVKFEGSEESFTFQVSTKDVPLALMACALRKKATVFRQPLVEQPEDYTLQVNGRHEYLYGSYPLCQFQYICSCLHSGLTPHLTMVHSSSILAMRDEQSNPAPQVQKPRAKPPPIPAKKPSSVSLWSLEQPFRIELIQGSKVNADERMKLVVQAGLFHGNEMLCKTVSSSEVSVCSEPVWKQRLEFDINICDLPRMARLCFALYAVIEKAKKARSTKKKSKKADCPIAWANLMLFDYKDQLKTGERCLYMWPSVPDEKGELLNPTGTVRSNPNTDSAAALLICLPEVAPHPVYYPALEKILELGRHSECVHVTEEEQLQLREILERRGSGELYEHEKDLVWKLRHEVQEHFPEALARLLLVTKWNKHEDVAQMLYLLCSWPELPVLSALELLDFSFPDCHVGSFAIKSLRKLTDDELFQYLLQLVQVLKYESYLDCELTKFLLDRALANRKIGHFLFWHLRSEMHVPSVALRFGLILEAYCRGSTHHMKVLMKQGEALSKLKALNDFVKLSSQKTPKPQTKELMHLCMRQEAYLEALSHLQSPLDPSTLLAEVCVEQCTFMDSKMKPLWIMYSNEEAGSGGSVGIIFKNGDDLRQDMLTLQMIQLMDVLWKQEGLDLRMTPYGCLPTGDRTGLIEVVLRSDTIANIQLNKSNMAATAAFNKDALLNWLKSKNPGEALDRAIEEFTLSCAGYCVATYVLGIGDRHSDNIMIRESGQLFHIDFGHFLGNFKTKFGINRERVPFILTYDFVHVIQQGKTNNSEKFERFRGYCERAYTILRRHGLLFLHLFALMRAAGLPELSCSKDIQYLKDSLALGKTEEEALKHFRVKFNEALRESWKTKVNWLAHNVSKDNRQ
Chain of PI3Kδ (p110δ/p85α) Recombinant Human Protein (P27986 whole entry partner): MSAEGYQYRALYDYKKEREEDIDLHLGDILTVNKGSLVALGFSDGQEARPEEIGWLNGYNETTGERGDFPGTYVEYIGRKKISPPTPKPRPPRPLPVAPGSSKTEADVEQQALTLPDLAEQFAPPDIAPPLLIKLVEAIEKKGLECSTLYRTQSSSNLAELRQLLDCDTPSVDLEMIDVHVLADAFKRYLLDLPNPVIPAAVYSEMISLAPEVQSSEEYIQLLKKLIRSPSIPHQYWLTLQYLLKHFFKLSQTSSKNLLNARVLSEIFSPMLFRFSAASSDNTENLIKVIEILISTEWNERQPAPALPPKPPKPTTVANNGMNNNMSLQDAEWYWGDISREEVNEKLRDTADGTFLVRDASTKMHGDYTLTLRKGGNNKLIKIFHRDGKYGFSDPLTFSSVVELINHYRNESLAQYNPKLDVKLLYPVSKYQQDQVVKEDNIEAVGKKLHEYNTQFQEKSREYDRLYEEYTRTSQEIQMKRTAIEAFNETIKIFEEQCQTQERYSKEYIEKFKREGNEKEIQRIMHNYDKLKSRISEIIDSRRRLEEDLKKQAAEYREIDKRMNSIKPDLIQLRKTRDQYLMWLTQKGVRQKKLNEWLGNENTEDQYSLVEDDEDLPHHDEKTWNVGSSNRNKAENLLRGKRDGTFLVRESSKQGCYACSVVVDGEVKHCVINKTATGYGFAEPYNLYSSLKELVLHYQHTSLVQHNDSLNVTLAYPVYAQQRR
Background: SPA uses beads or plates that emit light when radiolabelled molecules are held near them.

Assay [2] concerns the target PI3Kγ (p110γ) Recombinant Human Protein (Homo sapiens (Human), UniProt P48736). The assay is described as follows: PI3K-γ Scintillation Proximity Assay. It counts as biochemical. Conditions: read-out: PI3Kγ IC50. The method, boiled down: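 Radiometric SPA readout: […] bound to WGA beads after overnight shaking, IC50 derived from % activity of DMSO control. Reaction used human p110γ, 2 μM ATP, 20 μM PIP2, pH 6.7 MOPS buffer with MgCl2, DTT, CHAPS, 2% DMSO, room temperature.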

For assay [3], the system named is Phosphorylated Ribosomal Protein S6 (RPS6). The assay is described as follows: THP-1 RPS6 ELISA Assay. It counts as cell-based, Human. Conditions: THP-1 cells, read-out: PI3Kγ_THP1_RPS6_ELISA IC50. The method, boiled down: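 IC50 values come from a curve of percent inhibition against log compound concentration, using phospho-RPS6 ELISA (450 nm) on THP-1 lysates. Cells were serum-starved overnight, exposed to compound for 2 h at 37 °C, then challenged 15 min with 10 nM MCP-1.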
For orientation: In an ELISA, binding on a coated surface is turned into a signal by an enzyme label.

Chain of PI3Kγ (p110γ) Recombinant Human Protein (P48736 whole entry): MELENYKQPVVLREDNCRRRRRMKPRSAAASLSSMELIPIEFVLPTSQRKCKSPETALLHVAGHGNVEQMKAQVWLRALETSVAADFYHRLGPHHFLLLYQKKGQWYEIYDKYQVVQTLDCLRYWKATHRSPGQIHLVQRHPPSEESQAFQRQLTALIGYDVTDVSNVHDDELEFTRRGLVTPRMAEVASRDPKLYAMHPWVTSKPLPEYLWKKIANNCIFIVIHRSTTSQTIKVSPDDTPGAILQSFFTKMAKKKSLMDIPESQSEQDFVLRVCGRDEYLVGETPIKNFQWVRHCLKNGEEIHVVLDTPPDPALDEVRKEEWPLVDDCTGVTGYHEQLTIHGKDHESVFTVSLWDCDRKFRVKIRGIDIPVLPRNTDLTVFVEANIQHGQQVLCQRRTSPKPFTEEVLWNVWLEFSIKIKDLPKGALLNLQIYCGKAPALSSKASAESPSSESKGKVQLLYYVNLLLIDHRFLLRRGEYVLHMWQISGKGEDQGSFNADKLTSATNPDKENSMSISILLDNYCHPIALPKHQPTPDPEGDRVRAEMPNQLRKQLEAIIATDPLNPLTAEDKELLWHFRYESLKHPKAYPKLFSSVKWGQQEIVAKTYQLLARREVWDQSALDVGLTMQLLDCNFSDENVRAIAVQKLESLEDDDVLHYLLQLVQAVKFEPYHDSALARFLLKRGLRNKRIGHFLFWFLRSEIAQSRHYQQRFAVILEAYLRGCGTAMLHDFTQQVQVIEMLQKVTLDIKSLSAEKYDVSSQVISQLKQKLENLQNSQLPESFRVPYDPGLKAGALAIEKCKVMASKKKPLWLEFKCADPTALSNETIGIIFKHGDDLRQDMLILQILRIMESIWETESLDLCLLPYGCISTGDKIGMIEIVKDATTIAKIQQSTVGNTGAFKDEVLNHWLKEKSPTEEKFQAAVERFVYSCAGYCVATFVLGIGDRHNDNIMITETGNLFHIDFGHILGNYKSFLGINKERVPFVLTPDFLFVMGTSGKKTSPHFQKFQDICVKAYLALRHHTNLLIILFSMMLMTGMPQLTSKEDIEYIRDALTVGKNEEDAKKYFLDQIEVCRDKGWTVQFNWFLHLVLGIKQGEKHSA

Consider `Cc1ccc(S(=O)(=O)NC23CC(c4ncno4)(C2)C3)cc1-c1cnc2c(N)nc(C(F)(F)F)cn12` [Example 295, N-(3-(1,2,4-Oxadiazol-5-yl)bicyclo[1.1.1]pentan-1-yl)-3-(8-amino-6-(trifluoromethyl)imidazo[1,2-a]pyrazin-3-yl)-4-methylbenzenesulfonamide trifluoroacetate salt], for which the IC50 (in general, the concentration needed to halve the response being measured) in assay [1] is 500 to 2000 nM; in assay [2], less than 100 nM; in assay [3] (Homo sapiens) it was greater than 1000 nM.

For the compound `C[C@]1(O)CC[C@H](NS(=O)(=O)c2cc(-c3cnc4c(N)ncnn34)ccc2Cl)CC1` [Example 377, 5-(4-aminoimidazo[2,1-f][1,2,4]triazin-7-yl)-2-chloro-N-((1r,4r)-4-hydroxy-4-methylcyclohexyl)benzenesulfonamide], the IC50 in assay [1], in assay [2] and in assay [3] was less than 100 nM in each case.

Consider `Cc1cn2c(-c3ccc(Cl)c(S(=O)(=O)N[C@H]4CC[C@](C)(O)CC4)c3)cnc2c(N)n1` [Example 385, 5-(8-amino-6-methylimidazo[1,2-a]pyrazin-3-yl)-2-chloro-N-((1r,4r)-4-hydroxy-4-methylcyclohexyl)benzenesulfonamide], for which the results for the IC50 in assay [1], in assay [2] and in assay [3] were less than 100 nM, less than 100 nM and 100 to 500 nM, respectively.

As for `Cc1ccc(S(=O)(=O)NCC2(CO)CCOCC2)cc1-c1cnc2c(N)ncnn12` [Example 121, 3-(4-aminoimidazo[2,1-f][1,2,4]triazin-7-yl)-N-{[4-(hydroxymethyl)tetrahydro-2H-pyran-4-yl]methyl}-4-methylbenzenesulfonamide], the IC50 was greater than 2000 nM in assay [1], 100 to 500 nM in assay [2] and greater than 1000 nM in assay [3] (Homo sapiens).

For `Cc1ccc(S(=O)(=O)NC23CC(CO)(C2)C3)cc1-c1cnc2c(N)nc(C(F)(F)F)cn12` [Example 274, 3-(8-Amino-6-(trifluoromethyl)imidazo[1,2-a]pyrazin-3-yl)-N-(3-(hydroxymethyl)bicyclo[1.1.1]pentan-1-yl)-4-methylbenzenesulfonamide trifluoroacetate salt], the IC50 in assay [1] was 100 to 500 nM; in assay [2] it was less than 100 nM; in assay [3] (Homo sapiens), less than 100 nM.

As to `Cc1ccc(S(=O)(=O)N[C@H]2CC[C@H](O)CC2)cc1-c1cnc2c(N)nc(-c3cnn(CC(F)(F)F)c3)cn12` [Example 76, 3-{8-amino-6-[1-(2,2,2-trifluoroethyl)-1H-pyrazol-4-yl]imidazo[1,2-a]pyrazin-3-yl}-N-(trans-4-hydroxycyclohexyl)-4-methylbenzenesulfonamide], the IC50 in assay [1] was 100 to 500 nM; in assay [2], less than 100 nM; in assay [3] (Homo sapiens), 100 to 500 nM.

In the case of `Cc1nc(N)c2ncc(-c3cc(S(=O)(=O)NCC4(O)CCC4)ccc3C)n2n1` [Example 269, 3-(4-Amino-2-methylimidazo[1,2-f][1,2,4]triazin-7-yl)-N-((1-hydroxycyclobutyl)methyl)-4-methylbenzenesulfonamide trifluoroacetate salt], the IC50 was 100 to 500 nM in assay [1], less than 100 nM in assay [2] and 100 to 500 nM in assay [3].

On to `Cc1ccc(S(=O)(=O)N2CCC[C@@H](N)C2)cc1-c1cnc2c(N)nc(C(F)(F)F)cn12` [Example 464, (R)-3-(5-((3-Aminopiperidin-1-yl)sulfonyl)-2-methylphenyl)-6-(trifluoromethyl)imidazo[1,2-a]pyrazin-8-amine tris(2,2,2-trifluoroacetate)], for which the IC50 in assay [1], in assay [2] and in assay [3] (Homo sapiens) was less than 100 nM in each case.

For `Cc1ccc(S(=O)(=O)NC23CC(C)(C2)C3)cc1-c1cnc2c(N)ncnn12` [Example 117, 3-(4-Aminoimidazo[1,2-f][1,2,4]triazin-7-yl)-4-methyl-N-(3-methylbicyclo[1.1.1]pentan-1-yl)benzenesulfonamide], the IC50 in assay [1] is 500 to 2000 nM; in assay [2], less than 100 nM; in assay [3], 100 to 500 nM.

On to `Cc1ccc(S(=O)(=O)N2CC[C@H](O)C2)cc1-c1cnc2c(N)ncnn12` [Example 197, (S)-1-((3-(4-Aminoimidazo[2,1-f][1,2,4]triazin-7-yl)-4-methylphenyl)sulfonyl)pyrrolidin-3-ol], for which the IC50 is 500 to 2000 nM in assay [1], less than 100 nM in assay [2] and 500 to 1000 nM in assay [3] (Homo sapiens).

For the compound `Cc1ccc(S(=O)(=O)NC23CC(C#N)(C2)C3)cc1-c1cnc2c(N)ncnn12` [Example 250, 3-(4-Aminoimidazo[2,1-f][1,2,4]triazin-7-yl)-N-(3-cyanobicyclo[1.1.1]pentan-1-yl)-4-methylbenzenesulfonamide], the 50% inhibitory concentration (IC50) in assay [1] is 100 to 500 nM; in assay [2], less than 100 nM; in assay [3] (Homo sapiens), 100 to 500 nM.

On to `Cc1ccc(S(=O)(=O)NC23CCC(CO)(C2)C3)cc1-c1cnc2c(N)nc(C(F)(F)F)cn12` [Example 275, 3-(8-Amino-6-(trifluoromethyl)imidazo[1,2-a]pyrazin-3-yl)-N-(4-(hydroxymethyl)bicyclo[2.1.1]hexan-1-yl)-4-methylbenzenesulfonamide trifluoroacetate salt], for which the IC50 in assay [1] is 100 to 500 nM; in assay [2], less than 100 nM; in assay [3] (Homo sapiens) it was 100 to 500 nM.

As for `O=C(O)C(F)(F)F.[2H]C([2H])([2H])c1ccc(S(=O)(=O)NC23CCC(CO)(C2)C3)cc1-c1cnc2c(N)nc(C)cn12` [Example 383, 3-(8-Amino-6-methylimidazo[1,2-a]pyrazin-3-yl)-N-(4-(hydroxymethyl)bicyclo[2.1.1]hexan-1-yl)-4-(methyl-d3)benzenesulfonamide trifluoroacetate salt], the half-maximal inhibitory concentration (IC50) in assay [1], in assay [2] and in assay [3] (Homo sapiens) was less than 100 nM throughout.

In the case of `Cc1ccc(S(=O)(=O)N[C@H]2CC[C@H](CO)OC2)cc1-c1cnc2c(N)nc(C(F)(F)F)cn12` [Example 311], the figures for the IC50 in assay [1], in assay [2] and in assay [3] were 100 to 500 nM, less than 100 nM and less than 100 nM, respectively.

In the case of `Cc1ccc(S(=O)(=O)NCC2CCN(C(=O)C3CC3)CC2)cc1-c1cnc2c(N)nccn12` [Example 136, 3-(8-aminoimidazo[1,2-a]pyrazin-3-yl)-N-((1-(cyclopropanecarbonyl)piperidin-4-yl)methyl)-4-methylbenzenesulfonamide], the IC50 is greater than 2000 nM in assay [1], 100 to 500 nM in assay [2] and greater than 1000 nM in assay [3] (Homo sapiens).

In the case of `Cc1cc(F)c(S(=O)(=O)N[C@H]2CC[C@](C)(O)CC2)cc1-c1cnc2c(N)nc(C(F)(F)F)nn12` [Example 412, 5-(4-Amino-2-(trifluoromethyl)imidazo[1,2-f][1,2,4]triazin-7-yl)-2-fluoro-N-((1r,4r)-4-hydroxy-4-methylcyclohexyl)-4-methylbenzenesulfonamide trifluoroacetate salt], the IC50 in assay [1] was 100 to 500 nM; in assay [2], less than 100 nM; in assay [3], less than 100 nM.

Regarding `Cc1nc(N)c2ncc(-c3cc(S(=O)(=O)NC45CCC(CO)(C4)C5)ccc3C)n2n1` [Example 268, 3-(4-Amino-2-methylimidazo[1,2-f][1,2,4]triazin-7-yl)-N-(4-(hydroxymethyl)bicyclo[2.1.1]hexan-1-yl)-4-methylbenzenesulfonamide trifluoroacetate salt], the IC50 in assay [1] was 100 to 500 nM; in assay [2], less than 100 nM; in assay [3], 100 to 500 nM.

`Cc1ccc(S(=O)(=O)NC23CCC(C(=O)O)(C2)C3)cc1-c1cnc2c(N)ncnn12` [Example 109, 4-(3-(4-Aminoimidazo[1,2-f][1,2,4]triazin-7-yl)-4-methylphenylsulfonamido)bicyclo[2.1.1]hexane-1-carboxylic acid]: the concentration for half-maximal inhibition (IC50) is 500 to 2000 nM in assay [1], less than 100 nM in assay [2] and greater than 1000 nM in assay [3].

In the case of `Cc1ccc(S(=O)(=O)NC23CCC(C(C)(C)O)(CC2)OC3)cc1-c1cnc2c(N)nc(C(F)(F)F)cn12` [Example 441, 3-(8-Amino-6-(trifluoromethyl)imidazo[1,2-a]pyrazin-3-yl)-N-(1-(2-hydroxypropan-2-yl)-2-oxabicyclo[2.2.2]octan-4-yl)-4-methylbenzenesulfonamide trifluoroacetate salt], the IC50 in assay [1] is 100 to 500 nM; in assay [2], less than 100 nM; in assay [3] (Homo sapiens), 100 to 500 nM.

For `Cc1ccc(S(C)(=O)=O)cc1-c1cnc2c(N)nc(-c3ccc(N)nc3)cn12` [Example 482, 6-(6-Aminopyridin-3-yl)-3-(2-methyl-5-(methylsulfonyl)phenyl)imidazo[1,2-a]pyrazin-8-amine trifluoroacetate], the results for the IC50 in assay [1], in assay [2] and in assay [3] (Homo sapiens) were 500 to 2000 nM, less than 100 nM and greater than 1000 nM, respectively.

For the compound `Cc1noc(C23CC(NS(=O)(=O)c4ccc(C)c(-c5cnc6c(N)nc(C(F)(F)F)cn56)c4)(C2)C3)n1` [Example 293, 3-(8-Amino-6-(trifluoromethyl)imidazo[1,2-a]pyrazin-3-yl)-4-methyl-N-(3-(3-methyl-1,2,4-oxadiazol-5-yl)bicyclo[1.1.1]pentan-1-yl)benzenesulfonamide trifluoroacetate salt], the IC50 in assay [1] is 100 to 500 nM; in assay [2], less than 100 nM; in assay [3] (Homo sapiens), 100 to 500 nM.

Source of the values: patent US10479795B2 (Incyte Corporation, priority 2016, dated 2019).
